≈ marks a conversion by molar mass, not a printed value. Where two headings read alike, the source gives them in different places.
What was measured:
A. baumannii NCTC 13301 [1] = assay: MIC without and with sub-inhibitory polymyxin B (Example 4); format: cell-based, Acinetobacter baumannii; settings: Acinetobacter baumannii, NCTC13301, read-out: MIC +[…] PB
A. baumannii A473 [2] = assay: as above; format: cell-based, Acinetobacter baumannii; settings: Acinetobacter baumannii, A473, A. baumannii A473; +0.06 μg/ml PB; 2nd experiment; read-out: MIC
A. baumannii A390 [3] = assay: as above; format: cell-based, Acinetobacter baumannii; settings: Acinetobacter baumannii, A390, A. baumannii A390; +0.06 μg/ml PB; 2nd experiment; read-out: MIC
A. baumannii A472 [4] = assay: as above; format: cell-based, Acinetobacter baumannii; settings: Acinetobacter baumannii
A. baumannii A14 [5] = assay: as above; format: cell-based, Acinetobacter baumannii; settings: +0.06 μg/ml polymyxin B, 1st experiment
A. baumannii A472 [6] = assay: Preliminary MBC without and with sub-inhibitory polymyxin B (Example 4); format: cell-based, Acinetobacter baumannii; settings: Acinetobacter baumannii, preliminary MBC
A. baumannii A401 [7] = assay: MIC without and with sub-inhibitory polymyxin B (Example 4); format: cell-based, Acinetobacter baumannii; settings: Acinetobacter baumannii
[8] = test system: strains of A. baumannii and one strain of Acinetobacter sp.; assay: MIC with sub-inhibitory concentrations (0.25x MIC) of polymyxin B, panel of Acinetobacter strains (Example 4); format: cell-based
A. baumannii J2 = assay: MIC without and with sub-inhibitory polymyxin B (Example 4); format: cell-based, Acinetobacter baumannii; settings: Acinetobacter baumannii, J2, A. baumannii J2; +[…] PB; 2nd experiment; read-out: MIC
A. baumannii A387 [9] = assay: as above; format: cell-based, Acinetobacter baumannii; settings: Acinetobacter baumannii, A387, read-out: MIC +0.06 μg/ml PB, A. baumannii A387; +0.06 μg/ml polymyxin B; 1st experiment
A. baumannii A489 = assay: as above; format: cell-based, Acinetobacter baumannii; settings: Acinetobacter baumannii
A. baumannii A401 [10] = assay: Preliminary MBC without and with sub-inhibitory polymyxin B (Example 4); format: cell-based, Acinetobacter baumannii; settings: Acinetobacter baumannii
A. baumannii ATCC 19606 = assay: as above; format: cell-based, Acinetobacter baumannii; settings: Acinetobacter baumannii
A. baumannii A387 [11] = assay: as above; format: cell-based, Acinetobacter baumannii; settings: Acinetobacter baumannii
A. baumannii NCTC 13301 [12] = assay: as above; format: cell-based, Acinetobacter baumannii; settings: Acinetobacter baumannii
Procedure: (§1) The plates were incubated for 18-20 hours at 37° C. The MBC was read as the lowest concentration at which colony growth was ca. 90% less than the positive control (i.e. usually where single colonies or no colonies were observed).

A. baumannii A14 [13] = assay: as above; format: cell-based, Acinetobacter baumannii; settings: A. baumannii A14, +0.06 μg/ml PB, 2nd experiment
Procedure: as §1

A. baumannii A390 [14] = assay: as above; format: cell-based, Acinetobacter baumannii; settings: Acinetobacter baumannii, A390, A. baumannii A390, +0.06 μg/ml PB, 2nd experiment, read-out: MBC
Procedure: as §1

A. baumannii A473 [15] = assay: as above; format: cell-based, Acinetobacter baumannii; settings: Acinetobacter baumannii, A473, A. baumannii A473, +0.06 μg/ml PB, 2nd experiment, read-out: MBC
Procedure: as §1

[16] = test system: Acinetobacter sp. (H064200250); assay: MIC without and with sub-inhibitory polymyxin B (Example 4); format: cell-based; settings: Acinetobacter
A. baumannii NCTC 13301 [17] = assay: as above; format: cell-based, Acinetobacter baumannii; settings: Acinetobacter baumannii, NCTC13301, A. baumannii NCTC 13301; +[…] PB; 2nd experiment; read-out: MIC
A. baumannii A14 [18] = assay: as above; format: cell-based, Acinetobacter baumannii; settings: Acinetobacter baumannii, A14, A. baumannii A14; without PB; value in parentheses; 2nd experiment; read-out: MIC read with alamar blue
A. baumannii A14 [19] = assay: Preliminary MBC without and with sub-inhibitory polymyxin B (Example 4); format: cell-based, Acinetobacter baumannii; settings: A. baumannii A14; +0.06 μg/ml polymyxin B; preliminary MBC; 1st experiment

- MIC (A. baumannii NCTC 13301 [1]): 1 µg/mL (≈ 2.61 µM)
- MIC (A. baumannii A473 [2]): 2 µg/mL (≈ 5.22 µM)
- MIC (A. baumannii A390 [3]): 2 µg/mL (≈ 5.22 µM)
- MIC (A. baumannii A472 [4]; A472, A. baumannii A472, +[…] PB, 2nd experiment, read-out: MIC): ≤ 0.125 µg/mL
- MIC (A. baumannii A472 [4]; A472, read-out: MIC +[…] PB, A. baumannii A472, +[…] polymyxin B, 1st experiment): ≤ 0.125 µg/mL
- MIC +0.06 μg/ml PB (A. baumannii A14 [5]): 0.5 µg/mL
- MIC (A. baumannii A401 [7]; A401, A baumannii A 401, +0.06 μg/ml PB, 2nd experiment, read-out: MIC): 4 µg/mL (≈ 10.4 µM)
- MIC (A. baumannii A401 [7]; A401, read-out: MIC +0.06 μg/ml PB, A baumannii A 401, +0.06 μg/ml polymyxin B, 1st experiment): 4 µg/mL
- MIC range with PB (0.25x MIC) Oct. 1, 2008 n = 8 ([8]; 1st experiment, […] polymyxin B, ATCC 19606, A329, A390 and A473 not taken): <0.125 to 4 µg/mL
- MIC range with PB (0.25x MIC) Oct. 14, 2008 n = 11 ([8]; 2nd experiment, 0.06 μg/ml polymyxin B, all strains except the ATCC strain): ≤0.125 to 32 µg/mL
- MIC (A. baumannii J2): ≤ 0.125 µg/mL
- MIC (A. baumannii A387 [9]): 1 µg/mL
- MIC (A. baumannii A489; A489, A. baumannii A489, +[…] PB, 2nd experiment, read-out: MIC): ≤ 0.125 µg/mL
- MIC (A. baumannii A489; A489, read-out: MIC +[…] PB, A. baumannii A489, +[…] polymyxin B, 1st experiment): 0.5 µg/mL (≈ 1.3 µM)
- MIC ([16]; Acinetobacter spp. H064200250 (OXA51), +[…] PB, 2nd experiment, read-out: MIC): 0.25 µg/mL (≈ 0.652 µM)
- MIC ([16]; read-out: MIC +[…] PB, Acinetobacter spp. H064200250, +[…] polymyxin B, 1st experiment): 1 µg/mL (≈ 2.61 µM)
- MIC (A. baumannii NCTC 13301 [17]): 0.25 µg/mL (≈ 0.652 µM)
- MIC (A. baumannii A14 [18]): 2 µg/mL (≈ 5.22 µM)
Structure (SMILES): C[C@@H](O)[C@H]1C(=O)N2C(C(=O)O)=C(S[C@@H]3CN[C@H](C(=O)N(C)C)C3)[C@H](C)[C@H]12 [Meropenem]
- MBC (A. baumannii A472 [6]; A472, A. baumannii A472, +[…] PB, 2nd experiment, read-out: MBC): ≤ 0.125 µg/mL
- MBC (A. baumannii A472 [6]; A472, read-out: MBC +[…] PB, A. baumannii A472, +[…] polymyxin B, 1st experiment): ≤ 0.125 µg/mL
- MBC (A. baumannii A401 [10]; A401, A baumannii A 401, +0.06 μg/ml PB, 2nd experiment, read-out: MBC): 4 µg/mL (≈ 10.4 µM)
- MBC (A. baumannii A401 [10]; A401, read-out: MBC +0.06 μg/ml PB, A baumannii A 401, +0.06 μg/ml polymyxin B, 1st experiment): 4 µg/mL
- MBC (A. baumannii ATCC 19606; ATCC19606, A. baumannii ATCC 19606, +0.06 μg/ml PB, 2nd experiment, read-out: MBC): 2 µg/mL (≈ 5.22 µM)
- MBC (A. baumannii ATCC 19606; ATCC19606, read-out: MBC +0.06 μg/ml PB, A. baumannii ATCC 19606, +0.06 μg/ml polymyxin B, 1st experiment): 2 µg/mL
- MBC (A. baumannii A387 [11]; A387, A. baumannii A387, +0.06 μg/ml PB, 2nd experiment, read-out: MBC): 2 µg/mL (≈ 5.22 µM)
- MBC (A. baumannii A387 [11]; A387, read-out: MBC +0.06 μg/ml PB, A. baumannii A387, +0.06 μg/ml polymyxin B, 1st experiment): 1 µg/mL
- MBC (A. baumannii NCTC 13301 [12]; NCTC13301, A. baumannii NCTC 13301, +[…] PB, preliminary MBC, 2nd experiment, read-out: MBC): ≤ 0.125 µg/mL
- MBC (A. baumannii NCTC 13301 [12]; NCTC13301, read-out: MBC +[…] PB): 1 µg/mL (≈ 2.61 µM)
- MBC (A. baumannii A14 [13]): 1 µg/mL (≈ 2.61 µM)
- MBC (A. baumannii A390 [14]): 2 µg/mL (≈ 5.22 µM)
- MBC (A. baumannii A473 [15]): 2 µg/mL (≈ 5.22 µM)
- MBC +0.06 μg/ml PB (A. baumannii A14 [19]): 0.5 µg/mL
